Assay results: patent publication US7759313B2, “Induction method for cell differentiation” (Obschetstvo S Ogranichennoi Otvetstvennostiyu …, priority 2002, dated 2010)
Several values for one entry are separate records, joined by “and”; a condition that tells them apart may be missing. Equal entries are not always repeated. Marks after values point to notes of the source that are not given here.

Legend:
inoculated B-16 melanoma = experiment: Distribution of tumor cells by cell cycle phases (DNA content); assay type: in vivo, mice; conditions: 0.5 mg/kg intragastrically daily for 10 days
Protocol: Tests were done on inoculated B-16 melanoma. The effect of Dicarbamine on the distribution of tumor cells was studied on the basis of DNA content at different times following administration of the preparation. From day 6 after the tumor inoculation mice for 10 days were daily intragastrically given with 0.5 mg/kg Dicarbamine. Animals were sacrificed with subsequent investigation of tumor material at days 10, 12, 16 and 18 after inoculation, i.e. days 5 and 7 respectively after Dicarbamine administration as well as in 2 and 4 days after termination of Dicarbamine 10-day dosing.

[1] = test system: murine B-16 melanoma cells; experiment: Initial rate of cell proliferation (IRCP), B-16 cells; assay type: cell-based
Protocol: The study was conducted on two continuous cell cultures growing in the form of a monolayer in a tissue culture (on murine B-16 melanoma cells and human M-5 melanoma cells). IN was administered at concentrations 70-700 IU/ml. Dicarbamine (D) was transferred into stock solution (1.000 μM), sterilized through filters with 0.22 μm pore diameter and then diluted to concentrations 0.01 and 1.0 μM.
The effect of preparations on cells was assessed on the basis of initial rate of cell proliferation (IRCP). This index (IRCP), which is usually called colony rate growth, was determined by numbering the number of cells in micro colonies during the first days following affection in “test” (with preparations) and “control” (without preparations) dishes, by analyzing 50 colonies in each of them. Each “point” included […] three Petri dishes with growing cell colonies in adding specific concentrations of preparations under study. Growth rate of colonies (in %) was calculated according to the formula: […]
Cell numbers in micro colonies were calculated for every “point”. Toxicity of preparations in the selected range of concentrations was judged by cell survival, which was determined by the ratio between numbers of the colonies grown in “test” and “control” dishes.

[2] = test system: murine B-16 melanoma cells; experiment: IRCP of B-16 cells, peptide derivatives at 100 μM; assay type: cell-based
Protocol: The study was conducted on a continuous cell culture of murine B-16 melanoma growing in the form of a monolayer in a tissue culture. α-Interferon, selected as a preparation of comparison, was administered at concentration 70 IU/ml.
The tested compounds were transferred into stock solution (1,000 μM), sterilized through filers with 0.22 μm pore diameter and then diluted down to a concentration of 100 μM.
The effect of compounds on cells was assessed on the basis of initial rate of cell proliferation (IRCP). This index was determined by numbering the number of cells in micro colonies during the first days following affection in “test” (with preparations) and “control” (without preparations) dishes, by analyzing 50 colonies in each of them.
Calculations of cell numbers in micro colonies were done for every “point”. Toxicity was judged by B-16 melanoma cell survival, which was determined by the ratio between numbers of the grown colonies in “test” and “control” dishes.

human M-6 melanoma = experiment: Human M-6 melanoma growth dynamics, Dicarbamine combined with chemotherapy; assay type: in vivo
Protocol: The study was conducted according to the technique described in Example 3. Dicarbamine was administered daily p.o. at the single dose 4.5 mg/kg for 3 weeks from the moment of tumor appearance (from day 15 to day 36). In the groups of combined treatment Dicarbamine was also administered daily at the single dose 4.5 mg/kg for 3 weeks (days 15-36) in combination with a single administration of anti-tumor cytostatic agents Cysplatin at dose 6 mg/kg i.v. (day 25) and Aranoza at dose 40 mg/kg i.p. (day 27). Cytostatic therapy with was commenced when the average tumor volume reached 200±62 mm^3. At days 18, 25, 33, 39, 46 and 53 from the transplantation tumor volumes were measured and the value Vt/Vt−1 was calculated and expressed as a percentage.

Friend erythroblastosis = experiment: Subcutaneously inoculated Friend erythroblastosis growth; assay type: in vivo, mice
Protocol: The studies were conducted on male mice hybrid 100 BDF1 that were divided into groups containing 10 mice each. Lineal DBA2 mice were used for passaging FEB in vivo.
A strain of Friend erythroblastosis was obtained from the bank of tumor strains of the GU RCRC named after N. N. Blokhin of the RAMS. It was twice passaged intraperitoneally using generations 3-8 in subcutaneous inoculation. The inoculation was done using a cellular suspension of 1×10^6 cells in 0.3 ml […].
Solutions of the tested compounds were intra-gastrically daily administered to mice using a probe from day 3 to day 7 after tumor inoculation.
Therapeutic efficacy was assessed on the basis of tumor growth inhibition (TGI, %) and an average life span (ALS). Increase in life span was determined by the commonly accepted criterion T/C (%), which was calculated as a ratio between ALS in the test and control groups. Tumor growth rate Vt/V1 was calculated on the basis of change growth in average tumor volumes.

[3] = 1.5 mg/kg daily for 5 days, day 8
[4] = 1.5 mg/kg daily for 5 days, day 13
[5] = 1.5 mg/kg daily for 5 days, day 19
[6] = 4.5 mg/kg daily for 5 days, day 8
[7] = 4.5 mg/kg daily for 5 days, day 13
[8] = 4.5 mg/kg daily for 5 days, day 19

## O=C(O)CCCC(=O)NCCc1c[nH]cn1 [Dicarbamine]
Inoculated B-16 melanoma
  increase in the portion of IIG^2 cells: 12-14%
  increase of the portion of interphase tumor cells (IIG^1): ≈ 25%
  portion of proliferating cells (constant): ≈ 30%
[1]; B-16 cells
  toxicity according to the survival index: does not show toxicity
[1]; D 0.01 μM, 48 hours
  Initial rate of cell proliferation: 52.9%
[1]; D 0.01 μM, 72 hours
  Initial rate of cell proliferation: 61.0%
[1]; D 1.0 μM, 48 hours
  Initial rate of cell proliferation: 44.6%
[1]; D 1.0 μM, 72 hours
  Initial rate of cell proliferation: 44.6% and 43.6%
[1]; IN 70.0 IU/ml + D 1.0 μM, 72 hours
  Initial rate of cell proliferation: 26.1%
[1]; IN 700.0 IU/ml + D 0.01 μM, 48 hours
  Initial rate of cell proliferation: 24.9%
[1]; IN 700.0 IU/ml + D 0.01 μM, 72 hours
  Initial rate of cell proliferation: 22.0%
[1]; IN 700.0 IU/ml + D 1.0 μM, 48 hours
  Initial rate of cell proliferation: 21.5%
[1]; IN 700.0 IU/ml + D 1.0 μM, 72 hours
  Initial rate of cell proliferation: 16.0%
[2]; 48 hours
  Initial rate of cell proliferation (% cells/colony relative to the control): 30.8 ± 2.8%
[2]; 72 hours
  Initial rate of cell proliferation (% cells/colony relative to the control): 28.2 ± 2.2%
Human M-6 melanoma; Dicarbamine 4.5 mg/kg p.o. days 15-36 + Cysplatin 6 mg/kg i.v. + Aranoza 40 mg/kg i.p., 25 Day
  Vt/Vt−1, M ± m: 182.0±60.0% and 182.0 + 60.0** %
Human M-6 melanoma; Dicarbamine + Cysplatin + Aranoza, 33 Day
  Vt/Vt−1, M ± m: 191.0 + 71.0%
Human M-6 melanoma; Dicarbamine + Cysplatin + Aranoza, 39 Day
  Vt/Vt−1, M ± m: 24.5 + 17.4%
Human M-6 melanoma; Dicarbamine + Cysplatin + Aranoza, 46 Day
  Vt/Vt−1, M ± m: 28.7 + 9.8%
Human M-6 melanoma; Dicarbamine + Cysplatin + Aranoza, 53 Day
  Vt/Vt−1, M ± m: 8.0 + 30.6%
Human M-6 melanoma; Dicarbamine alone 4.5/94.5 mg/kg p.o. days 15-36, 25 Day
  Vt/Vt−1, M ± m: 166.0±93.0%
Human M-6 melanoma; Dicarbamine alone, 33 Day
  Vt/Vt−1, M ± m: 276.0 ± 104.0%
Human M-6 melanoma; Dicarbamine alone, 39 Day
  Vt/Vt−1, M ± m: 39.8 ± 27.3%
Human M-6 melanoma; Dicarbamine alone, 46 Day
  Vt/Vt−1, M ± m: 19.6 ± 17.5%
Human M-6 melanoma; Dicarbamine alone, 53 Day
  Vt/Vt−1, M ± m: 4.2 + 22.5%
Friend erythroblastosis; [3]
  Relative tumor volumes Vt/V1 at days after tumor inoculation: 1.0
  Tumor growth inhibition: 61%
Friend erythroblastosis; [4]
  Relative tumor volumes Vt/V1: 1.56
  Tumor growth inhibition: 78* %
Friend erythroblastosis; [5]
  Relative tumor volumes Vt/V1: 3.0
  Tumor growth inhibition: 55%
Friend erythroblastosis; [6]
  Relative tumor volumes Vt/V1: 1.0
  Tumor growth inhibition: 62%
Friend erythroblastosis; [7]
  Relative tumor volumes Vt/V1: 2.3
  Tumor growth inhibition: 58%
Friend erythroblastosis; [8]
  Relative tumor volumes Vt/V1: 3.76
  Tumor growth inhibition: 38%
